Measured values published in the NIST ThermoML archive (doi:10.1021/je500381c).

Test: refractive index (Na D-line) (dimensionless); xn = mol fraction of the nth substance listed
Settings: 100 kPa, Liquid, Standard Abbe refractometry

CCC12CC3CC(CC(C3)C1)C2 [1-ethyladamantane] + CCCCCCCO
refractive index
Settings	x2 = 0	x2 = 0.0999	x2 = 0.1999	x2 = 0.2988	x2 = 0.3991	x2 = 0.4998	x2 = 0.5995	x2 = 0.7	x2 = 0.8002	x2 = 0.9
293.15 K	1.4927	1.4869	1.4809	1.4746	1.4682	1.461	1.4546	1.4473	1.4397	1.4316
298.15 K	1.4906	1.4847	1.4785	1.4725	1.466	1.4594	1.4522	1.4451	1.4376	1.4298
303.15 K	1.4884	1.4827	1.4768	1.4704	1.464	1.4573	1.4499	1.4433	1.4359	1.4278
313.15 K	1.4839	1.4782	1.4722	1.466	1.4596	1.4528	1.4462	1.4389	1.4316	1.4236
323.15 K	1.4802	1.474	1.468	1.4618	1.4554	1.4486	1.4419	1.4349	1.4273	1.4198
333.15 K	1.4759	1.4697	1.4635	1.4577	1.451	1.4443	1.4373	1.4305	1.423	1.4156

OCC1CCCCC1 [cyclohexylmethanol] + CC12CC3CC(C1)CC(C)(C3)C2
refractive index
Settings	x1 = 0.1002	x1 = 0.1995	x1 = 0.2996	x1 = 0.4004	x1 = 0.4973	x1 = 0.6008	x1 = 0.7002	x1 = 0.7999	x1 = 0.9	x1 = 1
293.15 K	1.4759	1.4754	1.4742	1.4732	1.4719	1.4705	1.4692	1.4673	1.4655	1.4629
298.15 K	1.4738	1.4734	1.4722	1.4709	1.4698	1.4688	1.467	1.4653	1.4638	1.4612
303.15 K	1.4716	1.4712	1.47	1.4689	1.4679	1.4664	1.4651	1.4635	1.4617	1.4592
313.15 K	1.4673	1.4669	1.4656	1.4645	1.4633	1.462	1.4607	1.4584	1.4571	1.455
323.15 K	1.4626	1.4623	1.461	1.4602	1.459	1.4575	1.4564	1.4548	1.4535	1.4507
333.15 K	1.4583	1.4578	1.4565	1.4554	1.4544	1.4529	1.4514	1.45	1.4488	1.4463

CC12CC3CC(C)(C1)CC(C)(C3)C2 [1,3,5-trimethyladamantane] + CCCCCCCO
refractive index
Settings	x2 = 0	x2 = 0.1001	x2 = 0.2001	x2 = 0.3002	x2 = 0.4004	x2 = 0.5001	x2 = 0.6002	x2 = 0.7001	x2 = 0.7999	x2 = 0.9002
293.15 K	1.4736	1.4695	1.4657	1.4617	1.4573	1.4524	1.4476	1.4424	1.4366	1.4303
298.15 K	1.4715	1.4677	1.4637	1.4597	1.4552	1.4504	1.4458	1.4405	1.4348	1.4286
303.15 K	1.4695	1.4652	1.4614	1.4574	1.453	1.4484	1.4434	1.4382	1.4325	1.4262
313.15 K	1.4649	1.4612	1.4571	1.453	1.4487	1.4438	1.4389	1.4341	1.4283	1.4224
323.15 K	1.4612	1.4569	1.453	1.4489	1.4445	1.4398	1.435	1.4299	1.4244	1.4182
333.15 K	1.4568	1.4526	1.4485	1.4444	1.4401	1.4354	1.4303	1.4255	1.4195	1.4138
